5 compounds from patent US20240327406A1, “POTASSIUM CHANNEL MODULATORS” (Autifony Therapeutics Limited, priority 2021, published 2024) can be followed below.

The structures appear in SMILES notation. Read-outs that look alike come from different tables or passages of the source.

Series [1] in a line: Determination of in vivo pharmacokinetic parameters (blood and brain concentrations). Conditions: male, rat; for Kp: brain and blood, oral dosing 1 mg/kg, read-out: AUC B/B (brain/blood) ratio; for Kp at 0.5 h: brain and heart blood, intravenous, 0.5 mg/kg, 0.5 h after dose administration, read-out: Brain/Heart Blood conc @0.5 hr. As to the method:
Adult male rats (Charles River, Italy) are dosed with test compound orally at 1 mg/kg (5 ml/kg, in 5% v/v DMSO, 0.5% w/v HPMC in water) and intravenously at 0.5 mg/kg (2 ml/kg, in 5% v/v DMSO 40% w/v PEG400 in saline). After oral administration, blood samples are collected under deep Isofluorane anesthesia from the portal vein and heart of each rat (1 rat per time point). After intravenous administration, serial blood samples are collected from the lateral tail vein of each rat. Blood and brain samples are collected at a single timepoint of 0.5 h after dose administration for these animals. In all cases, blood samples are collected into potassium EDTA tubes.
A further group of rats (n=1 per test compound) receive a single intravenous administration of the PgP transport inhibitor, Elacridar (3 mg/kg) shortly before the oral administration of the test compound at 1 mg/kg, as above.
Blood and brain samples can be assayed for test compound concentration using a method based on protein precipitation with acetonitrile followed by HPLC/MS-MS analysis with an optimized analytical method.
The concentrations of test compound in blood (expressed as ng/ml) and brain (expressed as ng/g) at the different time points following either oral or intravenous dosing are analysed using a non-compartmental pharmacokinetic model using WinNonLin Professional version 4.1. The following parameters are derived:
Intravenous dosing: Maximum concentration over time (Cmax), integrated concentration over time (AUC), clearance (Clb), volume of distribution (Vss), half-life (t1/2) and Brain/Heart Blood conc @0.5 hr.
Oral dosing: Cmax, time of maximum concentration (Tmax), AUC, bioavailability (F %), fraction absorbed (Fa %), blood to brain ratio (AUC B/B), and Fold-change in AUC B/B in the presence of Elacridar.

For series [2], the target named is T1, human Kv3.1 channels (hKv3.1) (Homo sapiens, UniProt P48547).
T1 sequence (P48547 1-501 limits assumed): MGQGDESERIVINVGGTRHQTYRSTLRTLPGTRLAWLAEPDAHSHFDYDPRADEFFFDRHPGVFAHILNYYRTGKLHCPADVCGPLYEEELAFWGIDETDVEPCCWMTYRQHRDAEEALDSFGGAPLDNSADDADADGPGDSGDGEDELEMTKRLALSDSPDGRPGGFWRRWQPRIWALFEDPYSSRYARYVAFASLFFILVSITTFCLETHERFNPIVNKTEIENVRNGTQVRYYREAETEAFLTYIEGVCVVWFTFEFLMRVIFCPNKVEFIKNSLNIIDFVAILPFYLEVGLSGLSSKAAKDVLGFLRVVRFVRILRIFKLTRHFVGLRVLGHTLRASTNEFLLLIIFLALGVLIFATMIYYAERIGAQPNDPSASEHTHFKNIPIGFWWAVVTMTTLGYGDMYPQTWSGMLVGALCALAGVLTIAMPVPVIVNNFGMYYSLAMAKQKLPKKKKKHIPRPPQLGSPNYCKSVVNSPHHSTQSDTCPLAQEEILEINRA
Kind of series: Measurement of Kv3 channel modulation: Kv3.1 assay (IonWorks Quattro whole-cell electrophysiology). Format: cell-based. Conditions: for Kv3.1 max R %: normalised to maximum effect of reference compound (50 microM); for EC50: rounded to one decimal place, read-out: Kv3.1 pEC50 (converted). On the procedure:
The ability of the compounds of the invention to modulate the voltage-gated potassium channel subtypes Kv3.4/Kv3.3/Kv3.2/Kv3.1 may be determined using the following assay. Analogous methods may be used to investigate the ability of the compounds of the invention to modulate other channel subtypes.
Human embryonic kidney (HEK)-hKv3.1 cell line is generated by transfecting HEK-293 cells with an expression vector with human Kv3.1 (NM_004976.4). Cells are cultured with MEM supplemented with 10% Heat-Inactivated FBS, 2 mM L-glutamine, 1% Penicillin-Streptomycin, and 0.6 mg/ml of Geneticin (G418). HEK-hKv3.1b cells were amplified in T175 cm2 flask at 37° C. with 5% CO2, using MEM amplification medium, containing the G418 selection antibiotic (0.6 mg/ml). Cells were detached every 3-4 days, using DPBS to wash twice the flask, then TrypLE to dislodge the cells, and re-plated at a density of 2-4×10^6 cells/flask.
The day of the experiment, cells are removed from the incubator and the culture medium removed. Cells are washed with 5 ml of Dulbecco's PBS (DPBS) calcium and magnesium free and detached by the addition of 3 ml Versene (Invitrogen, Italy) followed by a brief incubation at 37° C. for 5 minutes. The flask is tapped to dislodge cells and 10 ml of DPBS containing calcium and magnesium is added to prepare a cell suspension. The cell suspension is then placed into a 15 ml centrifuge tube and centrifuged for 2 min at 1200 rpm. After centrifugation, the supernatant is removed and the cell pellet re-suspended in 4 ml of DPBS containing calcium and magnesium using a 5 ml pipette to break up the pellet. Cell suspension volume is then corrected to give a cell concentration for the assay of approximately 3 million cells per ml.
Experiments are conducted at r.t. using IonWorks Quattro™ planar array electrophysiology technology (Molecular Devices Corp.) with PatchPlate™ PPC. Stimulation protocols and data acquisition are carried out using a microcomputer (Dell Pentium 4). Planar electrode hole resistances (Rp) are determined by applying a 10 mV voltage step across each well. These measurements are performed before cell addition. After cell addition and seal formation, a seal test is performed by applying a voltage step from −80 mV to −70 mV for 160 ms. Following this, amphotericin-B solution is added to the intracellular face of the electrode to achieve intracellular access. Cells are held at −70 mV. Leak subtraction is conducted in all experiments by applying 50 ms hyperpolarizing (10 mV) prepulses to evoke leak currents followed by a 20 ms period at the holding potential before test pulses.
For hKv3.2 and hKv3.1, assays from the holding potential of −70 mV, a first test pulse at −15 mV was applied for 100 ms and after 100 ms at −70 mV a second pulse at +40 mV was applied for 50 ms. Cells were then maintained for 100 ms at −100 mV and another pulse from […] to +40 mV (duration 50 ms) was applied to clamp later the voltage at −40 mV during 200 ms
The intracellular solution contains the following (in mM): K-gluconate 100, KCl 54, MgCl2 3.2, HEPES 5, adjusted to pH 7.3 with KOH. Amphotericin-B solution is prepared as 50 mg/ml stock solution in DMSO and diluted to a final working concentration of 0.1 mg/ml in intracellular solution.
Compounds of use in the invention (or reference compounds such as N-cyclohexyl-N-[(7,8-dimethyl-2-oxo-1,2-dihydro-3-quinolinyl)methyl]-N′-phenylurea) are dissolved in dimethylsulfoxide (DMSO) at a stock concentration of 10 mM. […] Each dilution (1 μL) is transferred to another compound plate and external solution containing 0.05% pluronic acid (66 μL) is added. 3.5 μL from each plate containing a compound of the invention is added and incubated with the cells during the IonWorks Quattro™ experiment. The final assay dilution is 200 and the final compound concentrations are in the range 50 μM to 50 nM.

Where [3] appears, read: Table 2, Example compounds, some compounds with two data sets (n given in cell).

Turning to `Cc1ncc2[nH]c(=O)n(-c3ccc(Oc4cccc5c4C4(CC4)CO5)nc3)c2n1` [Example 26, 2-methyl-9-(6-spiro[2H-benzofuran-3,1′-cyclopropane]-4-yloxy-3-pyridyl)-7H-purin-8-one], in series [1], the Kp is less than 0.1 and the Kp at 0.5 h was less than 0.1. The “Kv3.1 max R %” value in series [2] (Table 2, Example compounds) was 135%. In addition, the EC50 in series [2] (setting [3]) is 50.1 nM.

For the compound `O=c1[nH]c2cccnc2n1-c1cnc(Oc2cccc3c2C2(CC2)CO3)nc1` [Example 13, 3-(2-{2H-spiro[1-benzofuran-3,1′-cyclopropane]oxy}pyrimidin-5-yl)-1H,2H,3H-imidazo[4,5-b]pyridin-2-one], in series [1], the Kp was 0.12 and the Kp at 0.5 h turned out to be 0.13. In series [2] (Table 2, Example compounds), the “Kv3.1 max R %” value is recorded as 194%. Besides, the EC50 in series [2] (setting [3]) was 200 nM.

Consider `Cc1ncc2[nH]c(=O)n(-c3ccc(Oc4cccc(OC(F)(F)F)c4)nc3)c2n1` [Example 24, 2-methyl-9-[6-[3-(trifluoromethoxy)phenoxy]-3-pyridyl]-7H-purin-8-one], for which, in series [1], the Kp was 0.29 and the Kp at 0.5 h stood at 0.33. Further, the “Kv3.1 max R %” value in series [2] (Table 2, Example compounds) came out at 144%. For the same compound, the EC50 in series [2] (setting [3]) was 1000 nM.

Consider `O=c1[nH]c2cccnc2n1-c1cnc(Oc2cccc3c2C2(CC2)CO3)cn1` [Example 8, 3-(5-spiro[2H-benzofuran-3,1′-cyclopropane]-4-yloxypyrazin-2-yl)-1H-imidazo[4,5-b]pyridin-2-one], for which, in series [1], the Kp is less than 0.1 and the Kp at 0.5 h is less than 0.1. Besides, the “Kv3.1 max R %” value in series [2] (Table 2, Example compounds) is given as 204%. Also, the EC50 in series [2] (setting [3]) was 200 nM.

`CC1(C)COc2cccc(Oc3ncc(-n4c(=O)[nH]c5cccnc54)cn3)c21` [Example 33, 3-[2-[(3,3-dimethyl-2H-benzofuran-4-yl)oxy]pyrimidin-5-yl]-1H-imidazo[4,5-b]pyridin-2-one]: in series [1], the Kp was 0.65 and the Kp at 0.5 h is 0.63. In addition, the “Kv3.1 max R %” value in series [2] (Table 2, Example compounds) stood at 194%. The EC50 in series [2] (setting [3]) was 794 nM. Moreover, the EC50 in series [2] (Table 3, Reference Examples and corresponding Examples) was 631 nM.
